From PMC8148066 (Acta Pharmaceutica Sinica. B, 2021) come the findings set out here.

Each structure is given as a SMILES string.

Data set [1] deals with gut microbiota. Description: FLZ-to-M1 conversion in colonic contents with CYP51 inhibitors. Type of data set: in vitro ADME, mice. The settings on record: FLZ 2 μg/mL with CYP51 inhibitor 8 and 20 μg/mL, 6 h.
The test system of data set [2] is CYP51 in gut microbiota. Description: CYP51 activity in colonic contents. Type of data set: biochemical, mice. The settings on record: inhibitor 8 and 20 μg/mL, 6 h, vs. Control.

In the case of `CCC(C)n1ncn(-c2ccc(N3CCN(c4ccc(OCC5COC(Cn6cncn6)(c6ccc(Cl)cc6Cl)O5)cc4)CC3)cc2)c1=O` (stereo not shown) [itraconazole], in data set [1], the “Concentration of FLZ in the colonic contents” value is “increased”, the “Concentration of M1 in the colonic contents” value is reported as “decreased” and the “Ratio of M1/FLZ in gut microbiota” value was “reduced”. Further, in data set [2], the “Activity of CYP51 in the reaction system of colonic contents” value is “inhibited”.
`C[C@@H](c1ncncc1F)[C@](O)(Cn1cncn1)c1ccc(F)cc1F` [voriconazole]: in data set [1], the “Concentration of FLZ in the colonic contents” value is reported as “increased” and the “Concentration of M1 in the colonic contents” value is “decreased”. Also, in data set [2], the “Activity of CYP51 in the reaction system of colonic contents” value was “inhibited”.
